The assay addresses TAF1-BD2 (Homo sapiens (Human), UniProt P21675). The assay can be described thus: TAF1-BD2 TR-FRET Binding Assay. To be noted: Assay: TAF-1.

The source of these data is patent US10183009B2, “Therapeutic compounds and uses thereof” (GENENTECH, INC., priority 2014, dated 2019).

TAF1-BD2, sequence (P21675 1525-1656 limits assumed): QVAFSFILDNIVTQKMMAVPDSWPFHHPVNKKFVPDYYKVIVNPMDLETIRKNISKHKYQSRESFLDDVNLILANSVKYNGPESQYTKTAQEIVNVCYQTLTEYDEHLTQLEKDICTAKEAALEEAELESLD
Experimental: Specifically, in a 384 well ProxiPlate TAF1-BD2 (6 nM final) was combined with biotin-ligand (50 nM final) in 50 mM HEPES (pH 7.5), 50 mM NaCl, 1 mM TCEP, 0.01% (w/v) BSA, and 0.008% (w/v) Brij-35 either in the presence of DMSO (final 0.2% DMSO) or compound dilution series in DMSO. After 10 minutes incubation at room temperature, a mixture Eu-W1024 Anti-6×His antibody (Perkin Elmer AD0110) and SureLight™ Allophycocyanin-Streptavidin (APC-SA, Perkin Elmer CR130-100) were added to a final concentrations of 0.2 nMolar antibody and 25 nMolar APC-SA, respectively. After twenty minutes of equilibration, the plates were read on an Envision instrument and IC50s calculated using a four parameter non-linear curve fit.

`C/C=C/Cn1cc(-c2cc(C(=O)N3CCC3)ccc2OC)c2cc[nH]c2c1=O` [Example 71, 4-[5-(azetidine-1-carbonyl)-2-methoxy-phenyl]-6-[(E)-but-2-enyl]-1H-pyrrolo[2,3-c]pyridin-7-one]: the IC50 (as a rule, the concentration that gives 50% inhibition) stood at 1.8 µM.

Compound `Cc1cc2c(-c3cccc(C(=O)N(C)C)c3)cn(CCC3CC3)c(=O)c2[nH]1` [Example 85, 3-[6-(2-cyclopropylethyl)-2-methyl-7-oxo-1H-pyrrolo[2,3-c]pyridin-4-yl]-N,N-dimethyl-benzamide] showed an IC50 of 0.48 µM.
